This note sets out measurements from patent US6866872B1, “Withania somnifera Dunal extracts for increasing male sperm count” (Nippon Shinyaku Co., Ltd., priority 1999, dated 2005).

Each structure is given as a SMILES string.

For data set [1], the system named is SD rats. The data set is described as follows: Test Example 1: genital organ weights after ethynylestradiol dosing for 2 weeks. To be noted: ethynylestradiol 3 mg/kg orally once daily for 2 weeks, n = 8. The data set is classed as in vivo, rat. The protocol:
SD rats aged 11 weeks (in groups of 8) were orally dosed with 3 mg/kg of the endocrine disturbing chemical ethynylestradiol suspended in 0.5% sodium carboxymethylcellulose (CMC) solution (ethynylestradiol 0.6 mg/mL) or, as control, 5 mL/kg of 0.5% CMC solution once daily in the morning for 2 weeks, and after the administration course, the testis, epididymis, prostate and seminal vesicle were respectively weighed.
Rat husbandry conditions: room temperature 21˜25° C., humidity 45˜60%, artificial lighting 12 hrs (7:00 a.m.˜7:00 p.m.), ventillation frequency 15/hr, solid food (CE-2, CLEA Japan Inc.) and drinking water ad libitum.

Data set [2] relates to Slc:SD rats. Put plainly: Test Example 2: genital organ weights 1 week after ethynylestradiol dosing for 10 days. The data set is classed as in vivo, rat. To be noted: ethynylestradiol 3 mg/kg orally once daily for 10 days, weighed 1 week after the course, n = 10. The protocol:
Slc:SD rats aged 10 weeks (in groups of 10) were orally dosed with 3 mg/kg of the endocrine disturbing chemical ethynylestradiol suspended in 0.5% sodium carboxymethylcellulose (CMC) solution (ethynylestradiol 0.3 mg/mL) or, as control, 10 mL/kg of 0.5% CMC solution once daily in the morning for 10 days, and at 1 week after the administration course, the testis, epididymis, prostate and seminal vesicle were respectively weighed.
Rat husbandry conditions: room temperature 21˜25° C., humidity 45˜60%, artificial lighting 12 hrs (7:00 a.m.˜7:00 p.m.), ventilation frequency 15/hr, solid food (CE-2, CLEA Japan Inc.) and drinking water ad libitum.

Data set [3] relates to rats with the genital organs impaired by ethynylestradiol. The note with it: rat, in vivo. The protocol:
Using rats with the genital organs impaired by ethynylestradiol as in Test Example 2, the sperm count and motile sperm rate were investigated.
From the right epididymis, the caudal epididymis was excised and weighed with Sartorius electronic balance LC620-S. The caudal epididymis was placed in a sperm collection vial containing 5 mL of BSA-Hanks solution and cut 3 times to cause the sperm to swim out. A 0.05 mL portion of the sperm fluid was sampled and diluted with 0.95 mL of BSA-Hanks solution for use as a diluted sperm fluid. The number of non-motile sperms in the diluted sperm fluid was determined with Thoma's hemocytometer. After this counting of non-motile sperms, the vessel containing the diluted sperm fluid was immersed in hot water and, after return to room temperature, the sperms were counted with the hemocytometer. […] Using the measured values, the motile sperm rate was calculated by means of the following equation [1]. Motile sperm rate (%)=(number of sperms−number of non-motile sperms)/number of sperms×100 [1] (2) Method for Determination of Sperm Count
The caudal epididymis in the sperm collection vial used in the above procedure (1) was further cut to release sperms and the fluid in the vial was filtered through a nylon-mesh sieve. The stock filtrate, 0.1 mL, was diluted with 1.9 mL of formalinized saline and the number of sperms was determined with Thoma's hemocytometer. When the sperm population in the sperm sample was considered to be too small (low turbidity), the stock sperm fluid was not diluted but the vessel was directly immersed in hot water and, after reutrn to room temperature, the number of sperms was determined. Moreover, the number of sperms (sperm count) per caudal epididymis was calculated using the number of sperms determined and the dilution factor by means of the equation given below, with the value per caudal epididymis unit weight (g) being taken as the sperm count/caudal epididymis and the value per epididymis as the sperm count/epididymis.
Sperm count=measured number of sperms×dilution factor Number of sperms/caudal epididymis=number of sperms determined×dilution factor/weight of the caudal epididymis epididymis (g) Number of sperms/epididymis=(number of sperms/caudal epididymis)×weight of epididymis (g)

For `C#C[C@]1(O)CC[C@H]2[C@@H]3CCc4cc(O)ccc4[C@H]3CC[C@@]21C` [Ethynylestradiol, ethynylestradiol], in data set [1], the Epididymis weight stood at 118 mg/100 g body weight, the Prostate weight worked out at 77.4 mg/100 g body weight, the Seminal vesicle weight turned out to be 88.1 mg/100 g body weight and the Testis weight is 705 mg/100 g body weight. Also, in data set [2], the Epididymis weight is recorded as 154.5 ± mg/100 gBW, the Prostate weight was 102.3 ± mg/100 gBW, the Seminal vesicle weight is listed as 170.0 ± mg/100 gBW and the Testis weight was 731.3 ± mg/100 gBW. Further, in data set [3], the “Caudal epididymis (weight, g)” value is given as 0.076 g; the Motile sperm rate is on record as 40.6 ± %; the Sperm count is 13.0 ± x10^6; the Sperm count/caudal epididymis is 160.2 ± x10^6. The Sperm count/epididymis in data set [3] is listed as 88.8 ± x10^6.
